In this experiment the test system is MCF7 cells. Description: Drug response assay (CellTiter-Glo). The class given is cell-based, human. To be noted: Cas9-expressing vs parental MCF7 cells; 0 μM-100 μM, 72 h. The protocol:
To further test the functional implications of Cas9-induced p53 activation, compared the response of parental and Cas9-expressing MCF7 cells to the MDM2-inhibitor nutlin-3 was compared. […] Without being bound by theory, these findings conclude that Cas9-induced p53 activation can affect both genetic and chemical perturbation assays.
MCF7 cells were seeded at a density of 9,000 cells per well in a 96-well plate. The next day, media was washed and fresh media containing nutlin-3 (Sigma-Aldrich) was added to the corresponding wells in a concentration range of 0 μM-100 μM. After 72 h of incubation, levels of ATP were measured as a surrogate marker for cell viability using the CellTiter-Glo assay (Promega). Luminescence measurements were acquired in a SpectraMax reader (ATC) using an integration time of 500 ms.
For orientation: ATP-based viability assays read luminescence as a measure of living cells.

SMILES strings stand for the structures.

With `COc1ccc(C2=N[C@@H](c3ccc(Cl)cc3)[C@@H](c3ccc(Cl)cc3)N2C(=O)N2CCNC(=O)C2)c(OC(C)C)c1` [nutlin-3], the drug sensitivity result is “modest, but significant, increase”.

For the origin of these results see patent US12297426B2, “DNA damage response signature guided rational design of CRISPR-based systems and therapies” (THE BROAD INSTITUTE, INC., priority 2019, dated 2025).
